Data as given in patent US12077503B2, “Substituted cyclic amides and their use as herbicides” (FMC CORPORATION, priority 2015, dated 2024).

Experiments:
Assay type in all cases: in vivo
Kochia (Kochia scoparia) [1] = assay: Test A postemergence; details: Bassia scoparia, post-emergence, 240 h, Postemergence, read-out: Kochia plant response rating (0 to 100 scale); for pest or weed control at 125 g/ha: 125 g ai/ha, visual rating about 10 d after treatment; for pest or weed control at 31 g/ha: 31 g ai/ha, 0 is no effect, 100 is complete control
Method in brief: (§1)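 Compounds were formulated in a non-phytotoxic solvent mixture with surfactant and applied as a preemergence directed soil spray after seeding, or sprayed postemergence over plants 2 to 10 cm tall at the one- to two-leaf stage. Evaluation after about 10 d compared treated with untreated controls, using a scale from 0 (no effect) to 100 (complete control).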

[2] = test system: ragweed (common ragweed, Ambrosia elatior); assay: Test A postemergence; details: Ambrosia artemisiifolia, post-emergence, 240 h, Postemergence, read-out: Ragweed plant response rating (0 to 100 scale); for pest or weed control at 125 g/ha: 125 g ai/ha, visual rating about 10 d after treatment; for pest or weed control at 31 g/ha: 31 g ai/ha, 0 is no effect, 100 is complete control
Method in brief: as §1

[3] = test system: blackgrass (Alopecurus myosuroides); assay: Test A postemergence; details: Alopecurus myosuroides, post-emergence, 240 h, Postemergence, read-out: Blackgrass plant response rating (0 to 100 scale); for pest or weed control at 125 g/ha: 125 g ai/ha, visual rating about 10 d after treatment; for pest or weed control at 31 g/ha: 31 g ai/ha, 0 is no effect, 100 is complete control
Method in brief: as §1

[4] = test system: barnyardgrass (Echinochloa crus-galli); assay: Test A postemergence; details: Echinochloa crus-galli, post-emergence, 240 h, Postemergence; for pest or weed control at 125 g/ha: 125 g ai/ha, visual rating about 10 d after treatment, read-out: Barnyardgrass plant response rating (0 to 100 scale, 0 no effect, 100 complete control); for pest or weed control at 31 g/ha: 31 g ai/ha, 0 is no effect, 100 is complete control, read-out: Barnyardgrass plant response rating (0 to 100 scale)
Method in brief: as §1

[5] = test system: ryegrass, Italian (Italian ryegrass, Lolium multiflorum); assay: Test A postemergence; details: Lolium multiflorum, post-emergence, 240 h, Postemergence, read-out: Ryegrass, Italian plant response rating (0 to 100 scale); for pest or weed control at 125 g/ha: 125 g ai/ha, visual rating about 10 d after treatment; for pest or weed control at 31 g/ha: 31 g ai/ha, 0 is no effect, 100 is complete control
Method in brief: as §1

corn (Zea mays) = assay: Test A postemergence; details: Zea mays, post-emergence, 240 h, Postemergence, read-out: Corn plant response rating (0 to 100 scale); for plant injury at 125 g/ha: 125 g ai/ha, visual rating about 10 d after treatment; for plant injury at 31 g/ha: 31 g ai/ha, 0 is no effect, 100 is complete control
Method in brief: as §1

[6] = test system: pigweed (Amaranthus retroflexus); assay: Test A postemergence; details: Amaranthus retroflexus, post-emergence, 240 h, Postemergence, read-out: Pigweed plant response rating (0 to 100 scale); for pest or weed control at 125 g/ha: 125 g ai/ha, visual rating about 10 d after treatment; for pest or weed control at 31 g/ha: 31 g ai/ha, 0 is no effect, 100 is complete control
Method in brief: as §1

[7] = test system: wheat (Triticum aestivum); assay: Test A postemergence; details: Triticum aestivum, post-emergence, 240 h, Postemergence, read-out: Wheat plant response rating (0 to 100 scale); for plant injury at 125 g/ha: 125 g ai/ha, visual rating about 10 d after treatment; for plant injury at 31 g/ha: 31 g ai/ha, 0 is no effect, 100 is complete control
Method in brief: as §1

[8] = test system: giant foxtail (Setaria faberii); assay: Test A postemergence; details: Setaria faberi, post-emergence, 240 h, Postemergence, read-out: Foxtail, Giant plant response rating (0 to 100 scale); for pest or weed control at 125 g/ha: 125 g ai/ha, visual rating about 10 d after treatment; for pest or weed control at 31 g/ha: 31 g ai/ha, 0 is no effect, 100 is complete control
Method in brief: as §1

Kochia (Kochia scoparia) [9] = assay: Test A preemergence; details: Bassia scoparia, pre-emergence, 240 h, Preemergence; for pest or weed control at 31 g/ha: 31 g ai/ha, 0 to 100 scale where 0 is no effect and 100 is complete control, read-out: Kochia plant response rating; for pest or weed control at 125 g/ha: 125 g ai/ha, 0 to 100 scale (0 no effect, 100 complete control), read-out: Plant response rating, Kochia
Method in brief: as §1

[10] = test system: ragweed (common ragweed, Ambrosia elatior); assay: Test A preemergence; details: Ambrosia artemisiifolia, pre-emergence, 240 h, Preemergence; for pest or weed control at 31 g/ha: 31 g ai/ha, 0 to 100 scale where 0 is no effect and 100 is complete control, read-out: Ragweed plant response rating; for pest or weed control at 125 g/ha: 125 g ai/ha, 0 to 100 scale (0 no effect, 100 complete control), read-out: Plant response rating, Ragweed
Method in brief: as §1

[11] = test system: barnyardgrass (Echinochloa crus-galli); assay: Test A preemergence; details: Echinochloa crus-galli, pre-emergence, 240 h, Preemergence; for pest or weed control at 31 g/ha: 31 g ai/ha, 0 to 100 scale where 0 is no effect and 100 is complete control, read-out: Barnyardgrass plant response rating; for pest or weed control at 125 g/ha: 125 g ai/ha, 0 to 100 scale (0 no effect, 100 complete control), read-out: Plant response rating, Barnyardgrass
Method in brief: as §1

[12] = test system: ryegrass, Italian (Italian ryegrass, Lolium multiflorum); assay: Test A preemergence; details: Lolium multiflorum, pre-emergence, 240 h, Preemergence; for pest or weed control at 31 g/ha: 31 g ai/ha, 0 to 100 scale where 0 is no effect and 100 is complete control, read-out: Ryegrass, Italian plant response rating; for pest or weed control at 125 g/ha: 125 g ai/ha, 0 to 100 scale (0 no effect, 100 complete control), read-out: Plant response rating, Ryegrass, Italian
Method in brief: as §1

[13] = test system: pigweed (Amaranthus retroflexus); assay: Test A preemergence; details: Amaranthus retroflexus, pre-emergence, 240 h, Preemergence; for pest or weed control at 31 g/ha: 31 g ai/ha, 0 to 100 scale where 0 is no effect and 100 is complete control, read-out: Pigweed plant response rating; for pest or weed control at 125 g/ha: 125 g ai/ha, 0 to 100 scale (0 no effect, 100 complete control), read-out: Plant response rating, Pigweed
[14] = test system: giant foxtail (Setaria faberii); assay: Test A preemergence; details: Setaria faberi, pre-emergence, 240 h, Preemergence; for pest or weed control at 31 g/ha: 31 g ai/ha, 0 to 100 scale where 0 is no effect and 100 is complete control, read-out: Foxtail, Giant plant response rating; for pest or weed control at 125 g/ha: 125 g ai/ha, 0 to 100 scale (0 no effect, 100 complete control), read-out: Plant response rating, Foxtail, Giant
Method in brief: as §1

rice (Oryra sativa) = assay: Test B flooded paddy test; details: Oryza sativa, 360 h, Flood, 250 g ai/ha; visually evaluated after 13 to 15 d; read-out: Plant response rating, Rice (0 to 100 scale where 0 is no effect and 100 is complete control)
Method in brief: (§2)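 Plants at 2-leaf stage flooded to 3 cm above soil, with compounds applied directly to paddy water and that depth maintained. Plants kept in greenhouse 13–15 d. Visual rating versus controls on a 0 (no effect) to 100 (complete control) scale.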

[15] = test system: barnyardgrass (Echinochloa crus-galli); assay: Test B flooded paddy test; details: Echinochloa crus-galli, 360 h, Flood, 250 g ai/ha; visually evaluated after 13 to 15 d; read-out: Plant response rating, Barnyardgrass (0 to 100 scale where 0 is no effect and 100 is complete control)
Method in brief: as §2

[16] = test system: sedge, umbrella (small-flower umbrella sedge, Cyperus difformis); assay: Test B flooded paddy test; details: Cyperus difformis, 360 h, Flood, 250 g ai/ha; visually evaluated after 13 to 15 d; read-out: Plant response rating, Sedge, Umbrella (0 to 100 scale where 0 is no effect and 100 is complete control)
Method in brief: as §2

[17] = test system: ducksalad (Heteranthera limosa); assay: Test B flooded paddy test; details: Heteranthera limosa, 360 h, Flood, 250 g ai/ha; visually evaluated after 13 to 15 d; read-out: Plant response rating, Ducksalad (0 to 100 scale where 0 is no effect and 100 is complete control)
Method in brief: as §2

SMILES | pest or weed control at 125 g/ha (Kochia (Kochia scoparia) [1]) | pest or weed control at 31 g/ha (Kochia (Kochia scoparia) [1]) | pest or weed control at 125 g/ha [2] | pest or weed control at 31 g/ha [2] | pest or weed control at 125 g/ha [3] | pest or weed control at 31 g/ha [3] | pest or weed control at 125 g/ha [4] | pest or weed control at 31 g/ha [4] | pest or weed control at 125 g/ha [5] | pest or weed control at 31 g/ha [5] | plant injury at 125 g/ha (corn (Zea mays)) | plant injury at 31 g/ha (corn (Zea mays)) | pest or weed control at 125 g/ha [6] | pest or weed control at 31 g/ha [6] | plant injury at 125 g/ha [7] | plant injury at 31 g/ha [7] | pest or weed control at 125 g/ha [8] | pest or weed control at 31 g/ha [8] | pest or weed control at 31 g/ha (Kochia (Kochia scoparia) [9]) | pest or weed control at 125 g/ha (Kochia (Kochia scoparia) [9]) | also measured
COc1ccc([C@H]2CN(C)C(=O)[C@@H]2C(=O)Nc2ccccc2F)cc1 [Compound 1342] | 20% | 0% | 0% | 0% | 0% | 0% | 90% | 20% | 0% | 0% | 0% | 0% | 0% | 0% | 0% | 0% | 70% | 20% | 0% | 0% | pest or weed control at 31 g/ha [10]: 0%; pest or weed control at 125 g/ha [10]: 0%; pest or weed control at 31 g/ha [11]: 60%; pest or weed control at 125 g/ha [11]: 90%; pest or weed control at 31 g/ha [12]: 0%; pest or weed control at 125 g/ha [12]: 0%; pest or weed control at 31 g/ha [13]: 0%; pest or weed control at 125 g/ha [13]: 20%; pest or weed control at 31 g/ha [14]: 90%; pest or weed control at 125 g/ha [14]: 100%; pest or weed control at 250 g/ha (rice (Oryra sativa)): 0%; pest or weed control at 250 g/ha [15]: 50%; pest or weed control at 250 g/ha [16]: 0%; pest or weed control at 250 g/ha [17]: 85%
CN1C[C@H](c2ccc3c(c2)OC(F)(F)O3)[C@@H](C(=O)Nc2cccnc2F)C1=O [Compound 1346] | 30% | 0% | 0% | 0% | 20% | 30% | 80% | 60% | 20% | 0% | 40% | 0% | 20% | 0% | 60% | 30% | 90% | 60% | 10% | 80% | pest or weed control at 31 g/ha [10]: 0%; pest or weed control at 125 g/ha [10]: 90%; pest or weed control at 31 g/ha [11]: 40%; pest or weed control at 125 g/ha [11]: 90%; pest or weed control at 31 g/ha [12]: 10%; pest or weed control at 125 g/ha [12]: 30%; pest or weed control at 31 g/ha [13]: 80%; pest or weed control at 125 g/ha [13]: 90%; pest or weed control at 31 g/ha [14]: 90%; pest or weed control at 125 g/ha [14]: 100%; pest or weed control at 250 g/ha (rice (Oryra sativa)): 0%; pest or weed control at 250 g/ha [15]: 90%; pest or weed control at 250 g/ha [16]: 0%; pest or weed control at 250 g/ha [17]: 90%
CN1C[C@H](c2ccc3c(c2)OC(F)(F)O3)[C@@H](C(=O)Nc2ccccc2C(F)(F)F)C1=O [Compound 1352] | 0% | 0% | 0% | 0% | 30% | 0% | 60% | 60% | 0% | 0% | 0% | 0% | 0% | 0% | 20% | 0% | 80% | 60% | 20% | 60% | pest or weed control at 31 g/ha [10]: 0%; pest or weed control at 125 g/ha [10]: 30%; pest or weed control at 31 g/ha [11]: 80%; pest or weed control at 125 g/ha [11]: 90%; pest or weed control at 31 g/ha [12]: 0%; pest or weed control at 125 g/ha [12]: 40%; pest or weed control at 31 g/ha [13]: 0%; pest or weed control at 125 g/ha [13]: 80%; pest or weed control at 31 g/ha [14]: 100%; pest or weed control at 125 g/ha [14]: 100%; pest or weed control at 250 g/ha (rice (Oryra sativa)): 0%; pest or weed control at 250 g/ha [15]: 60%; pest or weed control at 250 g/ha [16]: 0%; pest or weed control at 250 g/ha [17]: 70%
